Assay results reported in the supplement of paper PMC10307832.

Legend:
Experiment in all cases: relative viability (nuclei count vs DMSO), 5 days (fraction); higher = more cells survive
Dinaciclib = compound: CCc1cnn2c(NCc3ccc[n+]([O-])c3)cc(N3CCCC[C@H]3CCO)nc12 [Dinaciclib]
How it was run: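 Viability here means nuclei in treated wells divided by nuclei in vehicle wells, reported as the median across plates. Only plates with control CV below 25% and at least one doubling passed. Lung cancer cell lines in 1536-well plates were exposed to five √10-spaced library-drug doses for 5 days and counted from 4× Hoechst images in MetaXpress.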

Dinaciclib + Luminespib = compound: CCc1cnn2c(NCc3ccc[n+]([O-])c3)cc(N3CCCC[C@H]3CCO)nc12 [Dinaciclib] + CCNC(=O)c1noc(-c2cc(C(C)C)c(O)cc2O)c1-c1ccc(CN2CCOCC2)cc1 [Luminespib] (partner 0.01 µM)
How it was run: (§1)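 Relative viability was taken as the ratio of nuclei in treated wells to nuclei in vehicle wells. Lung cancer cell lines in 1536-well plates received compounds by pin tool one day after seeding, either one drug alone or a fixed anchor-drug dose plus five library-drug doses (not always all listed) in √10 steps. Nuclei were counted on 4× images after 5 days of treatment, and values are medians of duplicate plates.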

Dinaciclib + Crizotinib = compound: CCc1cnn2c(NCc3ccc[n+]([O-])c3)cc(N3CCCC[C@H]3CCO)nc12 [Dinaciclib] + C[C@@H](Oc1cc(-c2cnn(C3CCNCC3)c2)cnc1N)c1c(Cl)ccc(F)c1Cl [Crizotinib] (partner 1 µM)
How it was run: as §1

Dinaciclib + Linsitinib = compound: CCc1cnn2c(NCc3ccc[n+]([O-])c3)cc(N3CCCC[C@H]3CCO)nc12 [Dinaciclib] + C[C@]1(O)C[C@@H](c2nc(-c3ccc4ccc(-c5ccccc5)nc4c3)c3c(N)nccn32)C1 [Linsitinib] (partner 1 µM)
How it was run: as §1

Dinaciclib + Vorinostat = compound: CCc1cnn2c(NCc3ccc[n+]([O-])c3)cc(N3CCCC[C@H]3CCO)nc12 [Dinaciclib] + O=C(CCCCCCC(=O)Nc1ccccc1)NO [Vorinostat] (partner 1 µM)
How it was run: as §1

Row | Cell Line | relative viability (Dinaciclib; 0.009487 µM) | relative viability (Dinaciclib; 0.03 µM) | relative viability (Dinaciclib; 0.09487 µM) | relative viability (Dinaciclib; 0.3 µM) | relative viability (Dinaciclib + Luminespib; first compound 0.009487 µM) | relative viability (Dinaciclib + Luminespib; first compound 0.03 µM) | relative viability (Dinaciclib + Luminespib; first compound 0.09487 µM) | relative viability (Dinaciclib + Luminespib; first compound 0.3 µM) | relative viability (Dinaciclib + Crizotinib; first compound 0.009487 µM) | relative viability (Dinaciclib + Crizotinib; first compound 0.03 µM) | relative viability (Dinaciclib + Crizotinib; first compound 0.09487 µM) | relative viability (Dinaciclib + Crizotinib; first compound 0.3 µM) | relative viability (Dinaciclib + Linsitinib; first compound 0.009487 µM) | relative viability (Dinaciclib + Linsitinib; first compound 0.03 µM) | relative viability (Dinaciclib + Linsitinib; first compound 0.09487 µM) | relative viability (Dinaciclib + Linsitinib; first compound 0.3 µM) | relative viability (Dinaciclib + Vorinostat; first compound 0.009487 µM) | relative viability (Dinaciclib + Vorinostat; first compound 0.03 µM) | relative viability (Dinaciclib + Vorinostat; first compound 0.09487 µM) | relative viability (Dinaciclib + Vorinostat; first compound 0.3 µM)
1 | NCI-H2347 | 1.01 | 0.538 | 0.257 | 0.214 | 0.249 | 0.12 | 0.105 | 0.118 | 0.734 | 0.146 | 0.202 | 0.156 | 1.03 | 0.355 | 0.273 | 0.266 | 0.515 | 0.304 | 0.252 | 0.228
2 | NCI-H2405 | 0.947 | 0.405 | 0.246 | 0.23 | 0.688 | 0.231 | 0.193 | 0.247 | 0.772 | 0.224 | 0.201 | 0.209 | 0.989 | 0.25 | 0.262 | 0.235 | 0.813 | 0.211 | 0.217 | 0.201
3 | NCI-H3122 | 0.979 | 0.182 | 0.115 | 0.102 | 0.115 | 0.122 | 0.0991 | 0.0858 | 0.253 | 0.127 | 0.145 | 0.13 | 0.932 | 0.147 | 0.145 | 0.147 | 1.05 | 0.095 | 0.0953 | 0.0902
4 | PC-3 [JPC-3] | 1.05 | 0.92 | 0.4 | 0.266 | 0.668 | 0.417 | 0.219 | 0.199 | 0.953 | 0.799 | 0.232 | 0.198 | 0.912 | 0.991 | 0.537 | 0.237 | 0.915 | 0.56 | 0.277 | 0.323
5 | PC-14 | 0.766 | 0.163 | 0.0662 | 0.0529 | 0.146 | 0.0837 | 0.0681 | 0.0507 | 0.651 | 0.241 | 0.0877 | 0.0668 | 0.873 | 0.244 | 0.0973 | 0.0775 | 0.737 | 0.251 | 0.0426 | 0.0456
6 | RERF-LC-KJ | 1.01 | 0.29 | 0.176 | 0.156 | 0.452 | 0.195 | 0.179 | 0.208 | 0.885 | 0.179 | 0.131 | 0.122 | 0.924 | 0.193 | 0.147 | 0.099 | 0.652 | 0.373 | 0.141 | 0.135
7 | SK-LU-1 | 1.09 | 0.227 | 0.192 | 0.196 | 0.198 | 0.138 | 0.115 | 0.118 | 0.602 | 0.207 | 0.19 | 0.204 | 0.859 | 0.218 | 0.165 | 0.221 | 0.65 | 0.241 | 0.233 | 0.208
8 | SK-MES-1 | 1.04 | 0.295 | 0.163 | 0.15 | 0.428 | 0.131 | 0.167 | 0.152 | 0.969 | 0.18 | 0.191 | 0.155 | 1.08 | 0.493 | 0.168 | 0.164 | 1.23 | 0.156 | 0.161 | 0.148
9 | SW 1573 | 0.83 | 0.133 | 0.0862 | 0.081 | 0.126 | 0.0666 | 0.0548 | 0.0868 | 0.608 | 0.0718 | 0.066 | 0.0807 | 0.679 | 0.109 | 0.0988 | 0.0866 | 0.444 | 0.071 | 0.0779 | 0.0742
10 | UMC-11 | 0.405 | 0.204 | 0.179 | 0.196 | 0.271 | 0.177 | 0.158 | 0.174 | 0.157 | 0.0965 | 0.094 | 0.0987 | 0.282 | 0.167 | 0.169 | 0.168 | 0.229 | 0.174 | 0.167 | 0.167
